According to PubChem BioAssay AID602178 (NMMLSC, 2012):
Activity calls are given as the source filed them. No rule for the calls is given here.

Molecular target: Lethal factor (Bacillus anthracis) (UniProt P15917)
Assay: Bacillus anthracis LF protease inhibitors, dose response, biochemical, multiplex microsphere, cherry pick 1 compounds (AID 602178)
Conditions: multiplex microsphere protease cleavage assay, LF inhibition

Sequence of Lethal factor (Bacillus anthracis) (P15917 whole entry, looked up): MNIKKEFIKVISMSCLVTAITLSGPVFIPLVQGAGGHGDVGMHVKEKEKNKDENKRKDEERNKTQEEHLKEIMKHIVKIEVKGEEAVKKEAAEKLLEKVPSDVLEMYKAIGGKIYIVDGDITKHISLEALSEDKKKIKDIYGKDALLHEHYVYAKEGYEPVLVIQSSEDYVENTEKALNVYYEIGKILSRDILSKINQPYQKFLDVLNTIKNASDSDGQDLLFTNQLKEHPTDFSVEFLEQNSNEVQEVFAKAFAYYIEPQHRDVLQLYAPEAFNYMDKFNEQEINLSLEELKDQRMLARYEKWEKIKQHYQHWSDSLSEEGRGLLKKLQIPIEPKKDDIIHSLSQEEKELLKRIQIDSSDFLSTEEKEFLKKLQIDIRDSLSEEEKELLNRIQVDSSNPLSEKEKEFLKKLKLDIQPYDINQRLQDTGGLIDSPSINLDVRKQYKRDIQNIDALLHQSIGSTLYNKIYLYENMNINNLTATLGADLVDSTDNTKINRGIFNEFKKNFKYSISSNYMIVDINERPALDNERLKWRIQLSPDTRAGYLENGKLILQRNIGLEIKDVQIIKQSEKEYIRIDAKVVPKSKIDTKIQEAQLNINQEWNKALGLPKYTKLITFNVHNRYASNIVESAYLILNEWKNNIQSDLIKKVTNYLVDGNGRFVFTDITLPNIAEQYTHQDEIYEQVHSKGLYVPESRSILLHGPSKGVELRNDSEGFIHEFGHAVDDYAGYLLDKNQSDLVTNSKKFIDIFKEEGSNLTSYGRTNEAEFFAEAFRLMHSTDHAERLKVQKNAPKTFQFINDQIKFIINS

Oc1[nH]c(N=C2N=c3ccccc3=N2)c2ccccc12
EC50: > 20 µM (inactive)
